ChEMBL document CHEMBL5346896, “Development of indolealkylamine derivatives as potential multi-target agents for COVID-19 treatment” (Eur J Med Chem, 2023)

Test system: SARS-CoV-2
Assay: Antiviral activity against SARS-CoV-2 spike pseudotyped lentivirus infected in HEK293 cells expressing human ACE2 assessed as inhibition of viral entry into cells at highest concentration preincubated with cell for 1 hrs followed by viral infection for 1 hrs and further replaced with fresh medium and measured 48 hrs post transduction by luminescence based luciferase reporter assay relative to …
Format: functional, Severe acute respiratory syndrome coronavirus 2, HEK293T
Conditions: time 2 hrs

Compound	inhibition (INH)
COc1ccc2[nH]c(C(O)c3ccc(Cl)cc3)c(CCNC(C)=O)c2c1 (configuration not stated)	70%
COC(=O)NCCc1c(C(O)c2ccccc2)[nH]c2ccc(OC)cc12 (configuration not stated)	70%
